The kinase profiling compilation of Christmann-Franck et al. (2016)
Several values for one entry are separate records, joined by “and”; a condition that tells them apart may be missing. Equal values may be shown once.

What was measured:
Assay in all cases: radiometric filter-binding kinase assay, Kinaseprofiler
[1] = test system: BRSK2 (human), Q8IWQ3 [S251I]; conditions: ATP 70 µM
[2] = target: NEK6 (human) (UniProt Q9HC98); conditions: ATP 45 µM
[3] = target: CSK (human) (UniProt P41240); conditions: ATP 15 µM
CSK (human), sequence (P41240 whole entry, looked up): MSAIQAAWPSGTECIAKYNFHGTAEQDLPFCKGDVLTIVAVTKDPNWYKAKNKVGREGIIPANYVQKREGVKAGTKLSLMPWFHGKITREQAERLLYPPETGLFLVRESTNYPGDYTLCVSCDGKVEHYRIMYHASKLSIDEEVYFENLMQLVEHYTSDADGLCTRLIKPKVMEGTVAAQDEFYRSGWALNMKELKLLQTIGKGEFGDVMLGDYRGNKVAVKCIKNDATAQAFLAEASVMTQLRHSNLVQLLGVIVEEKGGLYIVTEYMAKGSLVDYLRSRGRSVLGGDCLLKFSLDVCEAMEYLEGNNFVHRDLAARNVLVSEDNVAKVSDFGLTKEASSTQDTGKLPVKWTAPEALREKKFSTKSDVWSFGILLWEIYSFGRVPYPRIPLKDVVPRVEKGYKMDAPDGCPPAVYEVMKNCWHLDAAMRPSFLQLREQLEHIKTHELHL

[4] = target: CHEK2 (human) (UniProt O96017); conditions: ATP 70 µM
[5] = target: NUAK1 (human) (UniProt O60285); conditions: ATP 45 µM
NUAK1 (human), sequence (O60285 whole entry, looked up): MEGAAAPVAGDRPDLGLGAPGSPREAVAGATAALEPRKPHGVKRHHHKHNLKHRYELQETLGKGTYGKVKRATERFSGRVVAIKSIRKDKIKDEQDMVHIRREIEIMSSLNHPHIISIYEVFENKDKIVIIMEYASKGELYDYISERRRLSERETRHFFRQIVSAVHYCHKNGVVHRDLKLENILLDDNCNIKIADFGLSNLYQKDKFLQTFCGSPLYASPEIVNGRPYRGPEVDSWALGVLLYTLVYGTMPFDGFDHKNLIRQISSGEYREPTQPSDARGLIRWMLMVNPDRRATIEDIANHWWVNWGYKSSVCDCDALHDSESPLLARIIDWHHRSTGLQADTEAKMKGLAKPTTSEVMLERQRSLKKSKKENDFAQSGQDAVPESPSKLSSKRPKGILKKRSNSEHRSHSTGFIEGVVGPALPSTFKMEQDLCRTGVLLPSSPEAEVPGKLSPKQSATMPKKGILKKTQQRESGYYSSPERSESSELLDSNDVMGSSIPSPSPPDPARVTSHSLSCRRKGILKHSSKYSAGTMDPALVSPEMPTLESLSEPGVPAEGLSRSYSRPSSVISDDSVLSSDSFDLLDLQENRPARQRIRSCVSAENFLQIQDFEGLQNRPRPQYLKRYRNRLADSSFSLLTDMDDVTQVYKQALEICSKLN

[6] = target: CHEK1 (human) (UniProt O14757); conditions: ATP 90 µM
CHEK1 (human), sequence (O14757 whole entry, looked up): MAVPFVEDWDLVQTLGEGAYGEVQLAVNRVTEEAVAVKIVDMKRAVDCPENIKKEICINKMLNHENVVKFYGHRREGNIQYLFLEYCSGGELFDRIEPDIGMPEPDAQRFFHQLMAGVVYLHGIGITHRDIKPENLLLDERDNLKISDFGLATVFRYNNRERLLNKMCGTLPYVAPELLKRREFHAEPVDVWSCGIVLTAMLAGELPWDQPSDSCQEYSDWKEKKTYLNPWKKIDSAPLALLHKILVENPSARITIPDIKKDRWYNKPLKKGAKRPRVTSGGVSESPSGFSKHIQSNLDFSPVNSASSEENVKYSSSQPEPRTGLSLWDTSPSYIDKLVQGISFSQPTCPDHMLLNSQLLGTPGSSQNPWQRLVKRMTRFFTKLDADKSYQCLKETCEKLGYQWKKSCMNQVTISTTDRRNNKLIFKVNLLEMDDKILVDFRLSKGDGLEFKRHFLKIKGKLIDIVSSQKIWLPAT

[7] = target: RPS6KA2 KD1 KD2 (human) (UniProt Q15349); conditions: ATP 10 µM
[8] = target: CAMK2D (human) (UniProt Q13557); conditions: ATP 10 µM
[9] = test system: SGK1 (human), O00141 [S422D]; conditions: ATP 90 µM
[10] = target: ROCK2 (human) (UniProt O75116); conditions: ATP 15 µM
[11] = target: AURKB (human) (UniProt Q96GD4); conditions: ATP 10 µM
[12] = target: LIMK1 (human) (UniProt P53667); conditions: ATP 15 µM
[13] = target: ACVR1B (human) (UniProt P36896); conditions: ATP 10 µM
[14] = target: MAP3K7 (human) (UniProt O43318); conditions: ATP 45 µM
[15] = target: MTOR FKBP1A (human) (UniProt P42345+P62942); conditions: ATP 45 µM
[16] = target: NEK2 (human) (UniProt P51955); conditions: ATP 120 µM
NEK2 (human), sequence (P51955 whole entry, looked up): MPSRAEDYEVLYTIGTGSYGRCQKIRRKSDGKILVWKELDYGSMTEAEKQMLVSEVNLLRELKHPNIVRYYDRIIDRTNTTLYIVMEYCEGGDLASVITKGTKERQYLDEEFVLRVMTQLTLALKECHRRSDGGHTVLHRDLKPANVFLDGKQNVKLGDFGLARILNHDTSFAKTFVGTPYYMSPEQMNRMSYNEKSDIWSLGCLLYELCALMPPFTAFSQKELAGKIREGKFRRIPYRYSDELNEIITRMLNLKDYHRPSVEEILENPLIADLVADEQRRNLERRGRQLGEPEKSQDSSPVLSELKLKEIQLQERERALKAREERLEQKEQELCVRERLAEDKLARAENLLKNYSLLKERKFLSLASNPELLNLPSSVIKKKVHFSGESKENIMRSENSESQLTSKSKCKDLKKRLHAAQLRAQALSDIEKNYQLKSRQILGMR

[17] = target: MAPK14 (human) (UniProt Q16539); conditions: ATP 90 µM
[18] = target: ALK (human) (UniProt Q9UM73); conditions: ATP 200 µM
[19] = target: PRKCE (human) (UniProt Q02156); conditions: ATP 45 µM
[20] = target: EPHA4 (human) (UniProt P54764); conditions: ATP 15 µM
[21] = target: WNK2 (human) (UniProt Q9Y3S1); conditions: ATP 200 µM
[22] = target: FRK (human) (UniProt P42685); conditions: ATP 155 µM
[23] = target: PRKG1 (human) (UniProt Q13976); conditions: ATP 90 µM
PRKG1 (human), sequence (Q13976 whole entry, looked up): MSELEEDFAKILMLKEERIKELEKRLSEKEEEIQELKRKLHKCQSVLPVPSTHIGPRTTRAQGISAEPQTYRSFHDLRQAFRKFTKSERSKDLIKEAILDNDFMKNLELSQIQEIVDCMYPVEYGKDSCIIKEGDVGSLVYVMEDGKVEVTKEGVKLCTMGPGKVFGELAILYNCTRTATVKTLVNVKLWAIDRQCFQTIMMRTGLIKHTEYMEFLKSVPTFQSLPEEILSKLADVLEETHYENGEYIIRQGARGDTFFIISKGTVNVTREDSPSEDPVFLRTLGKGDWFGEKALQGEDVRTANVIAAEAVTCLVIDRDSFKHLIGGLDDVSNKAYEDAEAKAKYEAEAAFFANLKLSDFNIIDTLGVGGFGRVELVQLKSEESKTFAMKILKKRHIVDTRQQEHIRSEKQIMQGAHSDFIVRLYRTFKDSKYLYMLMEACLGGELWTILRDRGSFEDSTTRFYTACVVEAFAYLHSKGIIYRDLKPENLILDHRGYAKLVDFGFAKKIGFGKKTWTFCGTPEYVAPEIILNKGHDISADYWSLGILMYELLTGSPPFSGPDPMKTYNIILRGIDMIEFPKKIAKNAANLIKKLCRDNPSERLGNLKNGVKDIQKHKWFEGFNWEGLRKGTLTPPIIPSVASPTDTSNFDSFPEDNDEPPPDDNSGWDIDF

[24] = target: HCK (human) (UniProt P08631)
HCK (human), sequence (P08631 whole entry, looked up): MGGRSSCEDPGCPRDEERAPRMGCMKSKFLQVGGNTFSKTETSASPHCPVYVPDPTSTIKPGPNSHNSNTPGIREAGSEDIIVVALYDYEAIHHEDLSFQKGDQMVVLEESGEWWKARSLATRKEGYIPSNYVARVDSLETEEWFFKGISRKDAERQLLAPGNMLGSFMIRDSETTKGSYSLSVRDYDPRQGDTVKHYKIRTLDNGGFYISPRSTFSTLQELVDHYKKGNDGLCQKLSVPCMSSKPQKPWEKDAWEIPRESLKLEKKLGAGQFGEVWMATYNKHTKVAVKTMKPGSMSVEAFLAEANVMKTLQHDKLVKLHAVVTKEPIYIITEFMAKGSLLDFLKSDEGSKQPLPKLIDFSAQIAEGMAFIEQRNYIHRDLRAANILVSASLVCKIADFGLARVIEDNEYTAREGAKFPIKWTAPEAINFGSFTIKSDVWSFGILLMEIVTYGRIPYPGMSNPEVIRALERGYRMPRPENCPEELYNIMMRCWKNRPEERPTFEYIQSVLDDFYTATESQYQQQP

[25] = target: NLK (human) (UniProt Q9UBE8); conditions: ATP 200 µM
[26] = target: EPHA7 (human) (UniProt Q15375); conditions: ATP 90 µM
EPHA7 (human), sequence (Q15375 whole entry, looked up): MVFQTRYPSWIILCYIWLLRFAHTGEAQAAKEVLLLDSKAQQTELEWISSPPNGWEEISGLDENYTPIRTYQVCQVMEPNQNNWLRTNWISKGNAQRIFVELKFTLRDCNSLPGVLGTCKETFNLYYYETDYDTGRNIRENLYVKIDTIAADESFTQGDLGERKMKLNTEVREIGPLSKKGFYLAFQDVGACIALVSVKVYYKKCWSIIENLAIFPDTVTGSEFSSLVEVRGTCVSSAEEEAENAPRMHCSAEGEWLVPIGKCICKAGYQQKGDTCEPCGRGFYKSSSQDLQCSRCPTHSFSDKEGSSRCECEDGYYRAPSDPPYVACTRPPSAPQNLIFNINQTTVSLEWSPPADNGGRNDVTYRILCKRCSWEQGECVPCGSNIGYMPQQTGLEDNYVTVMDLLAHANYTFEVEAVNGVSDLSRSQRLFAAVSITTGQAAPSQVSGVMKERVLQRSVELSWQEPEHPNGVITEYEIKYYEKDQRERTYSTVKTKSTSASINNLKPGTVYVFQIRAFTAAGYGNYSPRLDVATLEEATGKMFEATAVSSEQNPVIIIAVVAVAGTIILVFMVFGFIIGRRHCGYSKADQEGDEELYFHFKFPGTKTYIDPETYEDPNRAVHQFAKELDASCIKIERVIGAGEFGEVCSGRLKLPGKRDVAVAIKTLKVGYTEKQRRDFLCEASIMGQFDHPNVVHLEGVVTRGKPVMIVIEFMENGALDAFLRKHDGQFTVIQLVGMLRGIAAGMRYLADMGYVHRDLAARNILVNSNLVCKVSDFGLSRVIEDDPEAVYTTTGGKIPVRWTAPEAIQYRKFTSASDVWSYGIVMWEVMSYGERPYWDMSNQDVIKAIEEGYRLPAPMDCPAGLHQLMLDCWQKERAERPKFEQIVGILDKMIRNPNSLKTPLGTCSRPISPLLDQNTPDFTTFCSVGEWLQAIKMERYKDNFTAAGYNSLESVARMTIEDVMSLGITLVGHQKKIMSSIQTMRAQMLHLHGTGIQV

[27] = test system: AXL (human), P30530 [Q764R]; conditions: ATP 90 µM
[28] = target: TLK2 (human) (UniProt Q86UE8); conditions: ATP 10 µM
[29] = target: STK17A (human) (UniProt Q9UEE5); conditions: ATP 10 µM
[30] = target: RPS6KA4 KD1 KD2 (human) (UniProt O75676); conditions: ATP 45 µM
[31] = target: RET (human) (UniProt P07949); conditions: ATP 70 µM
[32] = target: PRKCI (human) (UniProt P41743); conditions: ATP 155 µM

BRSK2 (human), Q8IWQ3 [S251I], sequence (Q8IWQ3 whole entry, looked up, stated change not applied): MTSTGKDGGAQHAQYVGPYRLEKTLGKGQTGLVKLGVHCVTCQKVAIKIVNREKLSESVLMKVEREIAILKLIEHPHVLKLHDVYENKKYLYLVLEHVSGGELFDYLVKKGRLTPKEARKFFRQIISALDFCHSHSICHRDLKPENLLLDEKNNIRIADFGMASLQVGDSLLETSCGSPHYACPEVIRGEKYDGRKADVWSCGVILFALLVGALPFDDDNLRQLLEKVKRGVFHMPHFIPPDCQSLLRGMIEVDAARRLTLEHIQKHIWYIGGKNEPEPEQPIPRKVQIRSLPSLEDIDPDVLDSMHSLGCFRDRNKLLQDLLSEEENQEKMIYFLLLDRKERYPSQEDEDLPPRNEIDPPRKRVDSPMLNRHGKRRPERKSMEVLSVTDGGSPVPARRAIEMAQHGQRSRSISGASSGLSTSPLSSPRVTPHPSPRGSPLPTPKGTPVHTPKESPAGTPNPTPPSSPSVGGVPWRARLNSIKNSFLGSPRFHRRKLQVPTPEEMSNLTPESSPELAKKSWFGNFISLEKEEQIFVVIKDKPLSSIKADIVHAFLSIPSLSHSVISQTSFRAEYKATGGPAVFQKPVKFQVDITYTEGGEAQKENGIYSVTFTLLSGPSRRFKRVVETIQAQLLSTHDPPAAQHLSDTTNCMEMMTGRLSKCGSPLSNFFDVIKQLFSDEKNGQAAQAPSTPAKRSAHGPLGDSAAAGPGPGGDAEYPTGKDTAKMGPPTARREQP

Compound: O=C1Nc2ccccc2/C1=C1\Nc2ccccc2\C1=N/O
- residual activity ([1]; compound 1.0 µM): 10%
- residual activity ([1]; compound 10.0 µM): 5%
- residual activity ([2]; compound 1.0 µM): 91%
- residual activity ([2]; compound 10.0 µM): 103%
- residual activity ([3]; compound 1.0 µM): 101%
- residual activity ([3]; compound 10.0 µM): 78%
- residual activity ([4]; compound 1.0 µM): 13%
- residual activity ([4]; compound 10.0 µM): 2%
- residual activity ([5]; compound 1.0 µM): 4%
- residual activity ([5]; compound 10.0 µM): 7%
- residual activity ([6]; compound 1.0 µM): 65%
- residual activity ([6]; compound 10.0 µM): 30%
- residual activity ([7]; compound 1.0 µM): 19%
- residual activity ([7]; compound 10.0 µM): 4%
- residual activity ([8]; compound 1.0 µM): 10%
- residual activity ([8]; compound 10.0 µM): 2%
- residual activity ([9]; compound 1.0 µM): 59%
- residual activity ([9]; compound 10.0 µM): 28%
- residual activity ([10]; compound 1.0 µM): 85%
- residual activity ([10]; compound 10.0 µM): 82%
- residual activity ([11]; compound 1.0 µM): 1%
- residual activity ([11]; compound 10.0 µM): -2%
- residual activity ([12]; compound 1.0 µM): 61%
- residual activity ([12]; compound 10.0 µM): 21%
- residual activity ([13]; compound 1.0 µM): 104%
- residual activity ([13]; compound 10.0 µM): 72%
- residual activity ([14]; compound 1.0 µM): 64%
- residual activity ([14]; compound 10.0 µM): 71%
- residual activity ([15]; compound 1.0 µM): 117%
- residual activity ([15]; compound 10.0 µM): 89%
- residual activity ([16]; compound 1.0 µM): 93%
- residual activity ([16]; compound 10.0 µM): 83%
- residual activity ([17]; compound 1.0 µM): 94%
- residual activity ([17]; compound 10.0 µM): 78%
- residual activity ([18]; compound 1.0 µM): 52%
- residual activity ([18]; compound 10.0 µM): 18%
- residual activity ([19]; compound 1.0 µM): 106%
- residual activity ([19]; compound 10.0 µM): 91%
- residual activity ([20]; compound 1.0 µM): 96%
- residual activity ([20]; compound 10.0 µM): 83%
- residual activity ([21]; compound 1.0 µM): 90%
- residual activity ([21]; compound 10.0 µM): 55%
- residual activity ([22]; compound 1.0 µM): 13%
- residual activity ([22]; compound 10.0 µM): 6%
- residual activity ([23]; compound 1.0 µM): 79% and 77%
- residual activity ([23]; compound 10.0 µM): 45% and 67%
- residual activity ([24]; compound 1.0 µM, ATP 45 µM): 8%
- residual activity ([24]; compound 1.0 µM, ATP 70 µM): 15%
- residual activity ([24]; compound 10.0 µM, ATP 45 µM): 1%
- residual activity ([24]; compound 10.0 µM, ATP 70 µM): 5%
- residual activity ([25]; compound 1.0 µM): 82%
- residual activity ([25]; compound 10.0 µM): 67%
- residual activity ([26]; compound 1.0 µM): 70%
- residual activity ([26]; compound 10.0 µM): 15%
- residual activity ([27]; compound 1.0 µM): 17%
- residual activity ([27]; compound 10.0 µM): 8%
- residual activity ([28]; compound 1.0 µM): 60%
- residual activity ([28]; compound 10.0 µM): 14%
- residual activity ([29]; compound 1.0 µM): 6%
- residual activity ([29]; compound 10.0 µM): 4%
- residual activity ([30]; compound 1.0 µM): 32%
- residual activity ([30]; compound 10.0 µM): 4%
- residual activity ([31]; compound 1.0 µM): 1%
- residual activity ([31]; compound 10.0 µM): 0%
- residual activity ([32]; compound 1.0 µM): 96%
- residual activity ([32]; compound 10.0 µM): 105%
